Experimental data reported in PubChem BioAssay AID248 (DTP/NCI, 2004).
“And” between values parts separate entries of the source, which are not always exact repeats. Equal entries are not always repeated. Inconclusive results and toxic doses are left out. Rule as the data show it: active = T/C of 150% or more; inactive = T/C below 125%.

System: L1210 leukemia ip in BDF1 mice, survival T/C
Assay: NCI In Vivo Anticancer Drug Screen. Data for tumor model L1210 Leukemia (intraperitoneal) in B6D2F1 (BDF1) mice
Settings: endpoint: mean survival time, higher = longer survival
Method in brief: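 Tumor cells were implanted, animals were treated, and survival was followed. The result divides the treated measurement by the vehicle-control measurement.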

[1] = dose: 100.0 mg/kg/injection, schedule: Q01DX009 (ip), vehicle: Klucel (hydroxypropylcellulose) (HPC)
[2] = dose: 100.0 mg/kg/injection, schedule: Q04DX002 (ip), vehicle: Klucel (hydroxypropylcellulose) (HPC)
[3] = dose: 200.0 mg/kg/injection, schedule: Q01DX009 (ip), vehicle: Klucel (hydroxypropylcellulose) (HPC)
[4] = dose: 200.0 mg/kg/injection, schedule: Q04DX002 (ip), vehicle: Klucel (hydroxypropylcellulose) (HPC)
[5] = dose: 400.0 mg/kg/injection, schedule: Q04DX002 (ip), vehicle: Klucel (hydroxypropylcellulose) (HPC)
[6] = dose: 100.0 mg/kg/injection, schedule: Q01DX009 (ip), vehicle: saline with Tween-80
[7] = dose: 100.0 mg/kg/injection, schedule: Q01DX009 (ip), vehicle: saline
[8] = dose: 100.0 mg/kg/injection, schedule: Q04DX003 (ip), vehicle: saline
[9] = dose: 200.0 mg/kg/injection, schedule: Q04DX003 (ip), vehicle: saline
[10] = dose: 400.0 mg/kg/injection, schedule: Q04DX003 (ip), vehicle: saline
[11] = dose: 100.0 mg/kg/injection, schedule: Q04DX002 (ip), vehicle: saline with Tween-80
[12] = dose: 200.0 mg/kg/injection, schedule: Q04DX002 (ip), vehicle: saline with Tween-80
[13] = dose: 400.0 mg/kg/injection, schedule: Q01DX009 (ip), vehicle: Klucel (hydroxypropylcellulose) (HPC)
[14] = dose: 200.0 mg/kg/injection, schedule: Q01DX009 (ip), vehicle: saline
[15] = dose: 100.0 mg/kg/injection, schedule: Q01DX001 (ip), vehicle: saline
[16] = dose: 200.0 mg/kg/injection, schedule: Q01DX001 (ip), vehicle: saline
[17] = dose: 400.0 mg/kg/injection, schedule: Q01DX001 (ip), vehicle: saline

Measured: T/C

Cc1ccc(NC(=O)Nc2ccccc2Cl)cc1
inactive: dose: 100.0 mg/kg/injection, schedule: Q01DX009 (ip), vehicle: gum acacia 86 % of control | dose: 100.0 mg/kg/injection, schedule: Q04DX003 (ip), vehicle: gum acacia 89 % of control | dose: 200.0 mg/kg/injection, schedule: Q01DX009 (ip), vehicle: gum acacia 94 % of control | dose: 200.0 mg/kg/injection, schedule: Q04DX003 (ip), vehicle: gum acacia 89 % of control | dose: 400.0 mg/kg/injection, schedule: Q01DX009 (ip), vehicle: gum acacia 94 % of control | dose: 400.0 mg/kg/injection, schedule: Q04DX003 (ip), vehicle: gum acacia 98 % of control

O=C1c2ccccc2C(=O)N1CN1CCC(CCCC2CCN(CN3C(=O)c4ccccc4C3=O)CC2)CC1
inactive: dose: 100.0 mg/kg/injection, schedule: Q04DX003 (ip), vehicle: saline with Tween-80 92 % of control

O=C(Cc1cccc2ccccc12)N/N=C/c1cccc([N+](=O)[O-])c1
inactive: [1] 88 % of control | [2] 93 % of control | [3] 93 % of control | [4] 89 % of control | [5] 96 % of control

CN(C)c1ccc(N=Nc2ccc(Cl)c(Cl)c2)cc1
inactive: dose: 50.0 mg/kg/injection, schedule: Q01DX009 (ip), vehicle: saline with Tween-80 98 % of control | [6] 95 % of control | dose: 200.0 mg/kg/injection, schedule: Q01DX009 (ip), vehicle: saline with Tween-80 87 % of control

CN1C2CSCC1CC(O)C2 (stereo not drawn)
inactive: dose: 37.0 mg/kg/injection, schedule: Q04DX003 (ip), vehicle: other 101 % of control | dose: 37.5 mg/kg/injection, schedule: Q01DX009 (ip), vehicle: other 105 % of control | dose: 75.0 mg/kg/injection, schedule: Q01DX001 (ip), vehicle: other 102 % of control | dose: 75.0 mg/kg/injection, schedule: Q01DX001 (ip), vehicle: saline 103 % of control | dose: 75.0 mg/kg/injection, schedule: Q01DX009 (ip), vehicle: other 104 % of control | dose: 75.0 mg/kg/injection, schedule: Q04DX003 (ip), vehicle: other 98 % of control | dose: 150.0 mg/kg/injection, schedule: Q01DX001 (ip), vehicle: other 93 % of control | dose: 150.0 mg/kg/injection, schedule: Q01DX009 (ip), vehicle: other 104 % of control | dose: 150.0 mg/kg/injection, schedule: Q04DX003 (ip), vehicle: other 101 % of control

CC1C=NNC1=O (stereo not drawn)
inactive: [6] 124 % of control | [7] 115 % of control | [8] 104 % of control | [9] 112 % of control | dose: 300.0 mg/kg/injection, schedule: Q#B X027 (ip), vehicle: saline 89 % of control | [10] 109 % of control

CCC(CCC(C)C1CCC2C3CC=C4CC(OC(=O)Nc5ccc(Cl)cc5)CCC4(C)C3CCC12C)C(C)C (stereo not drawn)
inactive: [11] 91 % of control | [12] 97 % of control | dose: 400.0 mg/kg/injection, schedule: Q04DX002 (ip), vehicle: saline with Tween-80 94 % of control

CCc1ccc(N=C(C)c2c(O)cc(C)oc2=O)cc1
inactive: [1] 96 % of control | [3] 100 % of control | [13] 96 % of control

CCOC(=O)Nc1ccc(Cl)cc1
inactive: [2] 89 % of control | [4] 108 % of control | [5] 108 % of control

COc1c(Cl)c(Cl)c(Cl)c(Cl)c1Cl
inactive: [7] 89 % of control | dose: 100.0 mg/kg/injection, schedule: Q04DX003 (ip), vehicle: acetone 95 % of control | [14] 89 % of control | dose: 200.0 mg/kg/injection, schedule: Q04DX003 (ip), vehicle: acetone 94 % of control | dose: 400.0 mg/kg/injection, schedule: Q04DX003 (ip), vehicle: acetone 96 % of control

Cc1ccc(NC(=O)Oc2ccc(-c3ccccc3)cc2)cc1
inactive: [1] 107 % of control | [3] 100 % of control | [13] 92 % of control

CCOC(=O)c1ccc(NC(=O)Nc2cc(Cl)ccc2OC)cc1
inactive: [7] 106 % of control | [8] 109 % of control | [14] 92 % of control | [9] 97 % of control | dose: 400.0 mg/kg/injection, schedule: Q01DX009 (ip), vehicle: saline 92 % of control | [10] 92 % of control

CC1(C)CC(=O)C(c2ccccc2[N+](=O)[O-])=C(O)C1
inactive: dose: 50.0 mg/kg/injection, schedule: Q01DX001 (ip), vehicle: saline 102 % of control | [15] 105 % of control | [16] 90 % of control | [17] 94 % of control

CN(C)c1ccc(N=Nc2ccc(S(=O)(=O)O)cc2)cc1
inactive: [2] 92 % of control | [4] 103 % of control | [5] 92 % of control

Cc1csc(C)n1.Cc1csc(C)n1.Cc1csc(C)n1.Cc1csc(C)n1.[Cl][Rh][Cl]
inactive: dose: 3.13 mg/kg/injection, schedule: Q04DX003 (ip), vehicle: distilled water + Tween-80 105 % of control | dose: 6.25 mg/kg/injection, schedule: Q04DX003 (ip), vehicle: distilled water + Tween-80 102 % of control | dose: 12.5 mg/kg/injection, schedule: Q04DX003 (ip), vehicle: distilled water + Tween-80 100 % of control | dose: 25.0 mg/kg/injection, schedule: Q04DX003 (ip), vehicle: distilled water + Tween-80 110 % of control

CC(O)(C(F)(F)F)C(C)(O)C(F)(F)F (stereo not drawn)
inactive: [11] 86 % of control | [12] 91 % of control

OCCNc1nc2ccc(Br)cc2c2ccccc12
inactive: [1] 87 % of control | dose: 100.0 mg/kg/injection, schedule: Q04DX003 (ip), vehicle: Klucel (hydroxypropylcellulose) (HPC) 93 % of control | dose: 200.0 mg/kg/injection, schedule: Q04DX003 (ip), vehicle: Klucel (hydroxypropylcellulose) (HPC) 93 % of control | dose: 400.0 mg/kg/injection, schedule: Q04DX003 (ip), vehicle: Klucel (hydroxypropylcellulose) (HPC) 106 % of control

COC(=O)C1(C)COP(=O)(O)OC1 (stereo not drawn) (tested in a mixture with another compound)
inactive: [15] 91 % of control and 107 % of control and 100 % of control | [16] 94 % of control and 96 % of control and 97 % of control | [17] 89 % of control and 105 % of control and 107 % of control
